Experimental data from US20100331181A1, “Method for Protecting Cereals From Being Infected By Fungi” (BASF SE, priority 2008, published 2010).

Columns and labels:
Rhizoctonia solani = test: Microtest (micro titer plate): activity against Rhizoctonia solani; format: cell-based; conditions: 7 days after inoculation
Description: (§1) The active compounds were formulated separately as a stock solution having a concentration of 10000 ppm in dimethyl sulfoxide.
(§2) Epoxiconazole was used as commercial finished formulation and diluted with water to the stated concentration of the active compound.
B) 1. Activity against Rhizoctonia solani
(§3) The stock solutions were mixed according to the ratio, pipetted onto a micro titer plate (MTP) and diluted with water to the stated concentrations. A spore suspension of Septoria tritici in an aqueous biomalt solution was then added. The plates were placed in a water vapor-saturated chamber at a temperature of 18° C. Using an absorption photometer, the MTPs were measured at 405 nm 7 days after the inoculation.
(§4) The measured parameters were compared to the growth of the active compound-free control variant (100%) and the fungus-free and active compound-free blank value to determine the relative growth in % of the pathogens in the respective active compounds. These percentages were converted into efficacies. An efficacy of 0 means that the growth level of the pathogens corresponds to that of the untreated control; an efficacy of 100 means that the pathogens were not growing.
(§5) The expected efficacies of active compound mixtures were determined using Colby's formula [R. S. Colby, “Calculating synergistic and antagonistic responses of herbicide combinations”, Weeds 15, 20-22 (1967)] and compared with the observed efficacies.

Puccinia recondita = test: Greenhouse: preventative control of brown rust on wheat; format: in vivo; conditions: 0.25 ppm, wheat seedlings sprayed 1 day before inoculation, % of untreated control
Protocol: The spray solutions were prepared in several steps:
The stock solution were prepared: a mixture of acetone and/or dimethylsulfoxide and the wetting agent/emulsifier Wettol®, which is based on ethoxylated alkylphenoles, in a relation (volume) solvent-emulsifier of 99 to 1 was added to 25 mg of the compound to give a total of 10 ml.
Water was then added to total volume of 100 ml.
This stock solution was diluted with the described solvent-emulsifier-water mixture to the given concentration.
The product epoxiconazole was used as commercial finished formulation and diluted with water to the stated concentration of the active compound.
Preventative Control of Brown Rust on Wheat Caused by Puccinia recondite
The first two developed leaves of pot-grown wheat seedling were sprayed to run-off with an aqueous suspension, containing the concentration of active ingredient or their mixture as described below. The next day the plants were inoculated with spores of Puccinia recondita. To ensure the success the artificial inoculation, the plants were transferred to a humid chamber without light and a relative humidity of 95 to 99% and 20 to 22 °C. for 24 h. Then the trial plants were cultivated for 6 days in a greenhouse chamber at 22-26° C. and a relative humidity between 65 and 70%. The extent of fungal attack on the leaves was visually assessed as % diseased leaf area. […]
as §5
The visually determined percentages of infected leaf areas were converted into efficacies in % of the untreated control.
The efficacy (E) is calculated as follows using Abbot's formula: […]
The expected efficacies of active compound combinations were determined using Colby's formula (Colby, S. R. “Calculating synergistic and antagonistic responses of herbicide combinations”, Weeds, 15, pp. 20-22, 1967) and compared with the observed efficacies. […]

Septoria tritici = test: Microtest (micro titer plate): activity against Septoria tritici; format: cell-based; conditions: 7 days after inoculation
Description: as §1, §2
B) 2. Activity against Septoria tritici
as §3, §4, §5

Structure (SMILES)	Observed efficacy (Rhizoctonia solani; 0.004 ppm)	Observed efficacy (Rhizoctonia solani; 0.016 ppm)	Observed efficacy (Puccinia recondita)	Observed efficacy (Septoria tritici; 0.016 ppm)	Observed efficacy (Septoria tritici; 0.004 ppm)	Observed efficacy (Rhizoctonia solani; 0.001 ppm)
Fc1ccc([C@]2(Cn3cncn3)O[C@H]2c2ccccc2Cl)cc1 (racemic) [Epoxiconazole, epoxiconazole]	0%	–	–	–	–	–
CC1(C)CCC(Cc2ccc(Cl)cc2)C1(O)Cn1cncn1 (stereo not drawn) [Metconazole, metconazole]	26%	62%	33%	19%	–	–
Cc1nn(C)c(F)c1C(=O)Nc1ccccc1C(C)CC(C)C (stereo not drawn) [Compound (II), N-[2-(1,3-dimethylbutyl)-phenyl]-1,3-dimethyl-5-fluor-1H-pyrazole-4-carboxamide]	–	–	–	–	0%	–
OC(Cc1ccccc1Cl)(Cn1nc[nH]c1=S)C1(Cl)CC1 (stereo not drawn) [Prothioconazole]	–	11%	0%	5%	–	–
Cn1cc(C(=O)Nc2ccc(F)cc2-c2ccc(Cl)c(Cl)c2)c(C(F)F)n1 [Bixafen, N-(3′,4′-dichloro-5-fluorobiphenyl-2-yl)-3-(difluoromethyl)-1-methylpyrazole-4-carboxamide]	7%	–	0%	–	–	0%
